Holding throughout (experiment): NCI tumour cell line growth inhibition, 48 h
Assay [1] has as its system SNB-75 CNS.
Assay [2] relates to UO-31 renal.
The subject of assay [3] is SF-295 CNS.
Assay [4] concerns K-562 leukemia.
Assay [5] concerns SK-MEL-28 melanoma.
Assay [6] relates to HCC-2998 colon.
In assay [7] the test system is RXF 393 renal.
Assay [8] deals with SNB-19 CNS.
Assay [9] concerns NCI-H23 lung.
The test system of assay [10] is CCRF-CEM leukemia.
Assay [11] concerns RPMI-8226 leukemia.
Assay [12] deals with HOP-92 NSCLC.
Assay [13] has as its system SK-OV-3 ovarian.
Assay [14] concerns MDA-N.

These results are taken from PubChem BioAssay (NCI).

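Step 1: Grow cells in 96-well plates. Step 2: Expose to compound for 48 hours at 5 concentrations. Step 3: Interpolate endpoints linearly; if unreached, use highest concentration. TGI denotes the concentration required for complete inhibition of growth.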 A value given as a limit tells only on which side of the number the result lay.

In the case of `C[N+](C)(C)Cc1c(CC#N)[nH]c2ccccc12`, the TGI in [1], in assay [2], in [3], in [4], in assay [5] and in [6] was more than 100 µM throughout. Besides, the TGI in assay [7], in [8], in [9], in assay [10] and in [11] was more than 100 µM in each case.
Regarding `COP(=O)(OC)C(O)/C=C(\Cl)c1ccc(Cl)cc1` (configuration not stated), the TGI in assay [1], in assay [2], in assay [3], in assay [4], in assay [5] and in [7] was more than 100 µM in each case. The TGI was 45.3 µM in assay [12]; more than 100 µM in [8]; 50.8 µM in assay [9]; 49 µM in assay [10]; 63.4 µM in assay [11]; more than 100 µM in assay [13].
For `COc1cc(C2c3[nH]c4ccc(F)cc4c3C[C@H]3COC(=O)N23)cc(OC)c1O` (some centres not stated), the TGI in [1] is 8.84 µM; in assay [2], 28.9 µM; in assay [3], 53.8 µM; in assay [4], more than 100 µM; in assay [5] it was 33.6 µM; in assay [6], 28.4 µM. The TGI was 19.1 µM in [7]; more than 100 µM in assay [12]; more than 100 µM in assay [8]; 18.5 µM in assay [9]; more than 100 µM in [10]; more than 100 µM in assay [11]. In assay [13], the TGI was 57.2 µM.
For `O=C(O)C(Cc1cnc[nH]1)N=Cc1nc(-c2ccccc2)oc1O` (configuration not stated), the TGI in assay [1], in assay [2], in assay [3], in assay [4], in [5] and in [6] was more than 100 µM each time. Moreover, the TGI in assay [7], in assay [12], in [8], in [9], in assay [10] and in assay [11] was more than 100 µM each time. Moreover, the TGI in assay [13] is more than 100 µM.
For `Cc1ccc(S(=O)(=O)N/N=C/c2oc(-c3ccccc3Cl)c(-c3ccccc3Cl)c2[N+](=O)[O-])cc1`, the TGI is 36 µM in assay [2]; more than 100 µM in [3]; more than 100 µM in [4]; 62.9 µM in assay [5]; 47.9 µM in [6]; 28.4 µM in assay [7]. Also, the TGI in assay [12] was 55 µM; in assay [8], 64 µM; in assay [9] it was 29.3 µM; in assay [10] it was more than 100 µM; in [11] it was 30.3 µM; in [13], more than 100 µM.
For `O=C1c2ccccc2C(=O)C2C3c4ccccc4C(c4ccccc43)C12` (configuration not stated), the TGI in assay [1] is 42.7 µM; in [2], 59.6 µM; in [3], 31.5 µM; in assay [4] it was 32.2 µM; in assay [5] it was more than 100 µM; in [6], 88.8 µM. Also, the TGI in assay [7] is 22.7 µM; in [8], more than 100 µM; in assay [9] it was more than 100 µM; in assay [10] it was 26 µM; in [11] it was 25.7 µM; in [13], more than 100 µM.
For `O=C1SC(c2ccccc2)(c2ccccc2)c2ccccc21`, the TGI in [1], in [2], in assay [3], in assay [4], in assay [5] and in [6] was more than 100 µM in each case. Besides, the TGI in assay [7], in assay [8], in assay [9], in [10], in assay [11] and in assay [13] was more than 100 µM throughout.
Turning to `Cc1nc2c(n1CCC(C)C)C(=O)c1ccccc1C2=O`, the TGI is 63 µM in assay [1]; 86.7 µM in [2]; 67.3 µM in assay [3]; 69.1 µM in [4]; 38.8 µM in assay [5]; more than 100 µM in [6]. The TGI in assay [7] is 79.7 µM; in assay [8], more than 100 µM; in assay [9] it was 44.9 µM; in assay [10], 53.9 µM; in assay [13] it was more than 100 µM.
Turning to `O=c1[nH]c(=O)n(C2CC(O)C(CO)O2)cc1C#Cc1cc(C(F)(F)F)cc(C(F)(F)F)c1` (configuration not stated), the TGI in assay [1] is more than 67.1 µM; in assay [2], more than 100 µM; in assay [3], more than 100 µM; in [4], more than 100 µM; in assay [5] it was more than 100 µM; in assay [6], more than 100 µM. Besides, the TGI was 39 µM in [7]; more than 100 µM in [12]; more than 100 µM in [8]; more than 89.3 µM in [9]; more than 100 µM in assay [10]; more than 100 µM in assay [11]. The TGI in assay [13] was more than 100 µM.
As for `Cc1nc(N)c(N2CCN(Cc3ccccc3)CC2)c(=O)[nH]1`, the TGI in [2], in assay [3], in assay [4], in [5], in assay [6] and in [14] was more than 100 µM each time. Also, the TGI in assay [8], in assay [9], in assay [10] and in [11] was more than 100 µM in each case.
In the case of `CC(C)[Si](OCC1CC(C[C@H]2CC(C[C@H]3C[C@@H](CO[Si](C(C)C)(C(C)C)C(C)C)OC(C)(C)O3)OC(C)(C)O2)OC(C)(C)O1)(C(C)C)C(C)C` (some centres not stated), the TGI in assay [1], in [2], in assay [3], in [4], in assay [5] and in [6] was more than 100 µM in each case. Moreover, the TGI in assay [7], in [12], in assay [8], in [9], in assay [10] and in assay [11] was more than 100 µM each time. This compound registered a TGI in assay [13] of more than 100 µM.
In the case of `CC(C)C(Sc1nc(-c2ccccc2)c(-c2ccccc2)[nH]1)C(=O)N/N=C/c1ccc([N+](=O)[O-])cc1` (configuration not stated), the TGI in assay [1] turned out to be 42.3 µM; in assay [2] it was 26.5 µM; in assay [3], 33.9 µM; in assay [5], 30.6 µM; in [12], 35.4 µM; in assay [8], 41.7 µM. The TGI is 55.6 µM in assay [9], 28.2 µM in [10], 47.6 µM in assay [11] and 48.2 µM in assay [13].
With `c1nc(SSc2ncnc3nc[nH]c23)c2[nH]cnc2n1`, the TGI was more than 100 µM in assay [1]; more than 100 µM in assay [2]; 43.7 µM in [3]; more than 100 µM in assay [4]; more than 100 µM in assay [5]; more than 100 µM in assay [7]. The TGI is more than 100 µM in assay [12]; more than 100 µM in assay [8]; 9.54 µM in assay [9]; more than 100 µM in assay [10]; more than 100 µM in [11]; more than 100 µM in [13].
For `Cc1ccc(S(=O)C[C@@]2(C(F)F)NC(=O)NC2=O)cc1` (some centres not stated), the TGI in assay [1], in assay [2], in assay [3], in [4], in assay [5] and in assay [6] was more than 100 µM throughout. Further, the TGI in assay [7], in assay [12], in assay [8], in [9], in assay [10] and in [11] was more than 100 µM in each case. In assay [13], the TGI was more than 100 µM.
For the compound `NC(CCCCN=Cc1nc(-c2ccccc2)oc1O)C(=O)O` (configuration not stated), the TGI in [1], in assay [2], in assay [3], in assay [4], in assay [5] and in [6] was more than 100 µM each time. Further, the TGI in assay [7], in assay [12], in [8], in [9], in [10] and in assay [11] was more than 100 µM each time. Further, in assay [13], the TGI is more than 100 µM.
With `COc1cc2c(oc(=O)c3cc4ccoc4c(OC)c32)c2cccc(O)c12`, the TGI in assay [1], in assay [2], in assay [3], in [4], in assay [5] and in assay [6] was more than 100 µM throughout. Further, the TGI in assay [7], in [12], in assay [8], in assay [9], in assay [10] and in assay [11] was more than 100 µM throughout. The compound also returned a TGI in assay [13] of more than 100 µM.
Turning to `c1cc2cc(c1)CN1CCNCCN(CCNCC1)Cc1cccc(c1)CN1CCNCCN(CCNCC1)C2`, the TGI in assay [1], in [2], in assay [3], in [4], in [5] and in [6] was more than 100 µM in each case. Also, the TGI in [14], in assay [8], in assay [9], in assay [11] and in [13] was more than 100 µM each time.
For `CC(=O)OCC1OC(n2c3c(cc(C#N)c2=S)CCCCCC3)C(OC(C)=O)C(OC(C)=O)C1OC(C)=O` (configuration not stated), the TGI in [1], in assay [2], in [3], in assay [4], in assay [5] and in assay [6] was more than 100 µM in each case. Moreover, the TGI in [7], in assay [12], in assay [8], in assay [9], in assay [10] and in assay [11] was more than 100 µM in each case.
With `CN(C)CCCNC(=O)c1cc(NC(=O)c2cc(NC(=O)[C@H]3C[C@@H]3C(=O)Nc3cc(C(=O)Nc4cc(C(=O)NCCCN(C)C)n(C)c4)n(C)c3)cn2C)cn1C`, the TGI was more than 100 µM in assay [1]; more than 100 µM in [3]; more than 100 µM in [4]; more than 100 µM in assay [6]; 7.96 µM in assay [12]; more than 100 µM in [8]. Also, the TGI in assay [9], in [10] and in assay [11] was more than 100 µM in each case.
Take `C[C@@H]1OC(=O)C[C@H]2CC(=O)N(CCC3CN(S(=O)(=O)C(F)(F)F)c4ccc(Cc5ccc6c(c5)C(CCN5C[C@H]7[C@@H](CC(=O)O[C@H]7C)CC5=O)CN6S(=O)(=O)C(F)(F)F)cc43)C[C@@H]21` (some centres not stated): the TGI in assay [1], in assay [2], in assay [3], in assay [4], in assay [5] and in [6] was more than 100 µM throughout. Besides, the TGI in [7], in [12], in [8], in [9], in assay [10] and in [11] was more than 100 µM throughout. In assay [13], this compound yielded a TGI of more than 100 µM.
On to `NC(CCCNc1cccc(O)c1)C(=O)O` (configuration not stated), for which the TGI in assay [1], in assay [2], in assay [3], in assay [4], in assay [5] and in assay [7] was more than 100 µM each time. Further, the TGI in [12], in assay [8], in assay [10], in assay [11] and in assay [13] was more than 100 µM each time.
With `CCCC(=O)/C=C/S/C=C/C(=O)CCC`, the TGI was 83.6 µM in [1]; more than 100 µM in assay [2]; 66.3 µM in assay [3]; 18.7 µM in assay [5]; 21.4 µM in [7]; 72.3 µM in assay [8]. Also, the TGI in assay [9] was 7.7 µM; in [13], more than 100 µM.
